The values below come from patent publication US6331546A, “Use of 2-amino-3,4-dihydroquinazolines for the production of a medicament for the treatment or prophylaxis of illnesses caused by ischemic conditions” (Aventis Pharma Deutschland GmbH, priority 1999, dated 2001).

Where a name gives a salt, the structure may show the parent alone.

T1 sequence (P23791 whole entry): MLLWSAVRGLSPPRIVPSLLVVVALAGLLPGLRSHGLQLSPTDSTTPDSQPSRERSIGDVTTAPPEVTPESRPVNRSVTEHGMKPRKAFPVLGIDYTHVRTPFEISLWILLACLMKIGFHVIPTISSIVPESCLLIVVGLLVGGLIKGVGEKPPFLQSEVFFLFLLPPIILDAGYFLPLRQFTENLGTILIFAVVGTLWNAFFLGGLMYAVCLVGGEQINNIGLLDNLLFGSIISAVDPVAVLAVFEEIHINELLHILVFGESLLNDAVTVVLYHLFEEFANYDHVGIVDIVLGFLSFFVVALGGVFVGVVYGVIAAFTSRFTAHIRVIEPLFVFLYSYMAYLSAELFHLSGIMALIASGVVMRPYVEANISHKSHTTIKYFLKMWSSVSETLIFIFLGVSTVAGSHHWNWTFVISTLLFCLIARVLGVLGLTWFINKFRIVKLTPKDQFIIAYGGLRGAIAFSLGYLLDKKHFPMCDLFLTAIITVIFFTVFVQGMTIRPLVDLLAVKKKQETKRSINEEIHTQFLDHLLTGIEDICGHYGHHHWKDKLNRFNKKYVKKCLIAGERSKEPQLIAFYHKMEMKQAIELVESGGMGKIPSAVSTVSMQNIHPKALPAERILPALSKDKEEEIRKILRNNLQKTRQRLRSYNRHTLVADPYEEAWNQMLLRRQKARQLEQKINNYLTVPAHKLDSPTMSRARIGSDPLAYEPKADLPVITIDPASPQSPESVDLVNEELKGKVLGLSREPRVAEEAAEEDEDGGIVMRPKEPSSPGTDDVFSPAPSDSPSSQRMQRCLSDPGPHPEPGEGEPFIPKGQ

The experiment concerns the target T1, Na+/H+ exchanger of rabbit erythrocytes (Oryctolagus cuniculus, UniProt P23791).
T1 construct: endogenous in cells; host or cells: erythrocytes in fresh heparinised blood of White New Zealand rabbits (Ivanovas)
Description: Inhibition of the Na+/H+ exchanger of rabbit erythrocytes (amiloride-sensitive sodium influx, flame photometry). Conditions: hyperosmolar salt/sucrose medium, pH 7.4, 37° C. Format: cell-based. From the text: Inhibition of the Na^+ /H^+ Exchanger of Rabbit Erythrocytes White New Zealand rabbits (Ivanovas) received a standard diet with 2% cholesterol for six weeks in order to activate the Na^+ /H^+ exchange and thus to be able to determine the Na^+ influx into the erythrocytes via Na^+ /H^+ exchange by flame photometry. The blood was removed from the auricular arteries and rendered uncoagulable by means of 25 IU of potassium heparin. A part of each sample was used for the duplicate determination of the hematocrit by centrifugation. Aliquots of 100 μl in each case served for the measurement of the Na^+ starting content of the erythrocytes. In order to determine the amiloride-sensitive sodium influx, 100 μl of each blood sample in 5 ml in each case of a hyperosmolar salt/sucrose medium (mmol/I: 140 NaCl, 3 KCl, 150 sucrose, 0.1 ouabain, 20 tris-hydroxymethyl-aminomethane) were incubated at pH 7.4 and 37° C. The erythrocytes were then washed three times with ice-cold MgCl^2 /ouabain solution (mmol/I: 112 MgCl2, 0.1 ouabain) and hemolyzed in 2.0 ml of distilled water. The intracellular sodium content was determined by flame photometry. The Na^+ net influx was calculated from the difference between sodium starting values and the sodium content of the erythrocytes after incubation. The amiloride-inhibitable sodium influx followed from the difference in the sodium content of the erythrocytes after incubation with and without amiloride 3×10^-4 mol/I. The procedure was the same in the case of the compounds according to the invention.
In the case of `COc1ccc(C2NC(N)=Nc3ccccc32)cc1OC` (stereo not drawn) [Example 2, 2-Amino-4-(3,4-dimethoxyphenyl)-3,4-dihydroquinazolinium Fumarate], the IC50 – broadly, the point on the concentration scale where inhibition reaches its midpoint – came out at 3.2 µM.

Consider `COc1ccc(C2c3ccccc3N=C(N)N2C)cc1OC` (stereo not drawn) [Example 3, 2-Amino4-(3,4-dimethoxyphenyl)-3-methyl-3,4-dihydro-quinazolinium Fumarate], for which the IC50 is 4.1 µM.

`COc1ccc(C2NC(N)=Nc3ccccc32)cc1` (stereo not drawn) [Example 1, 2-Amino-4-(4-methoxyphenyl)-3,4-dihydroquinazoline Hydrochloride]: the half-maximal inhibitory concentration (IC50) was 3.4 µM.
